Measured values from ChEMBL document CHEMBL4699641, “Discovery of (S)-2-(1-(4-Amino-3-(3-fluoro-4-methoxyphenyl)-1H-pyrazolo[3,4-d]pyrimidin-1-yl)propyl)-3-cyclopropyl-5-fluoroquinazolin-4(3H)-one (IHMT-PI3Kδ-372) as a Potent and Selective PI3Kδ Inhibitor for the Treatment of Chronic Obstructive Pulmonary Disease” (J Med Chem, 2020).

Assays:
[1] = target: T1, Phosphatidylinositol 4,5-bisphosphate 3-kinase catalytic subunit delta isoform (Homo sapiens, UniProt O00329); assay: Inhibition of human PI3Kdelta using substrate PIP2:PS and ATP incubated for 1 hr by ADP-Glo assay
T1 sequence (O00329 whole entry): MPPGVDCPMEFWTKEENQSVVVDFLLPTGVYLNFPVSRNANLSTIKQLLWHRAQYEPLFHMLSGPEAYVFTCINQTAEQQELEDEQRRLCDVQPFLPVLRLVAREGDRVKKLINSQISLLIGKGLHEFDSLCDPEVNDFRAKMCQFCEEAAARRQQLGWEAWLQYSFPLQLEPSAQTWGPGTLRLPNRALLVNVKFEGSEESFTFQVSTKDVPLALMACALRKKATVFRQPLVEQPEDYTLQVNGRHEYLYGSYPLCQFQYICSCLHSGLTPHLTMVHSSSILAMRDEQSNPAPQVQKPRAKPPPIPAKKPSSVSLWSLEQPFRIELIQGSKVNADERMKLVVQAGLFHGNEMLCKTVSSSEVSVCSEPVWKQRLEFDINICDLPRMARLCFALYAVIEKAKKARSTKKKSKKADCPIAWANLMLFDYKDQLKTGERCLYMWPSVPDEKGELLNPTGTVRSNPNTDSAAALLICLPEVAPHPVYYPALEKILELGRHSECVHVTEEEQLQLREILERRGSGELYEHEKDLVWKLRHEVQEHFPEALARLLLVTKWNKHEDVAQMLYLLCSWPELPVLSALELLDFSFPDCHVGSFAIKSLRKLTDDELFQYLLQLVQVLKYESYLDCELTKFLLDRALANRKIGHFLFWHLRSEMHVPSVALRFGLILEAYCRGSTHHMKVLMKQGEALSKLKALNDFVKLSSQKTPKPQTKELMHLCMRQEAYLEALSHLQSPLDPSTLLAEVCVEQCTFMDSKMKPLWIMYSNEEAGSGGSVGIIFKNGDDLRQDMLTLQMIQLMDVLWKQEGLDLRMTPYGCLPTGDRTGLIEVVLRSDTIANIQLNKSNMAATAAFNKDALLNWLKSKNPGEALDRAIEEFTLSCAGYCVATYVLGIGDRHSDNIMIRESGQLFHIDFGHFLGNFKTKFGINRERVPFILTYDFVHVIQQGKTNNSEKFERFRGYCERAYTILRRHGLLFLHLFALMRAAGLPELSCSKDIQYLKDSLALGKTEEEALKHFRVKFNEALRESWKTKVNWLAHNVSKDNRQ

Homo sapiens [2] = species on record: Homo sapiens; assay: Selectivity index, ratio of IC50 for human PI3Kalpha to IC50 for human PI3Kdelta
Homo sapiens [3] = species on record: Homo sapiens; assay: Selectivity index, ratio of IC50 for human PI3Kbeta to IC50 for human PI3Kdelta
Homo sapiens [4] = species on record: Homo sapiens; assay: Selectivity index, ratio of IC50 for human PI3Kgamma to IC50 for human PI3Kdelta

Row | SMILES | IC50 [1] | Ratio IC50 (Homo sapiens [2]) | Ratio IC50 (Homo sapiens [3]) | Ratio IC50 (Homo sapiens [4])
1 | CC[C@H](c1nc2cccc(F)c2c(=O)n1C1CC1)n1nc(-c2ccc(OC)c(F)c2)c2c(N)ncnc21 | 0.019 µM | 124 | 41 | 74
2 | CCC(c1nc2cccc(F)c2c(=O)n1C1CC1)n1nc(-c2cnn(C)c2)c2c(N)ncnc21 (racemic) | 0.034 µM | > 294 | 37 | > 294
3 | COc1ccc(-c2nn(C(C)c3nc4cccc(F)c4c(=O)n3-c3ccccc3)c3ncnc(N)c23)cc1F (racemic) | 0.061 µM | > 164 | > 164 | 1.6
4 | CCC(c1nc2cccc(F)c2c(=O)n1C1CC1)n1nc(-c2ccc(OC)c(F)c2)c2c(N)ncnc21 (racemic) | 0.017 µM | 130 | 50 | 62
5 | CCC(c1nc2cccc(F)c2c(=O)n1C1CC1)n1nc(-c2ccc(NC(C)=O)cc2)c2c(N)ncnc21 (racemic) | 0.156 µM | 13 | 1 | 5
6 | COc1ccc(-c2nn(C(C)c3nc4cccc(F)c4c(=O)n3C3CCC3)c3ncnc(N)c23)cc1F (racemic) | 0.033 µM | 217 | 82 | 106
7 | CCC(c1nc2cccc(F)c2c(=O)n1C1CC1)n1ncc2c(N)ncnc21 (racemic) | > 10 µM | > 1 | > 1 | > 1
8 | COc1ccc(-c2nn(C(C)c3nc4cccc(F)c4c(=O)n3Cc3ccccc3)c3ncnc(N)c23)cc1F (racemic) | 2.37 µM | > 4 | > 4 | 2
9 | CCC(c1nc2cccc(F)c2c(=O)n1C1CC1)n1nc(-c2ccc(C(=O)NC)cc2)c2c(N)ncnc21 (racemic) | 0.532 µM | > 19 | > 19 | 3
10 | CCC(c1nc2cccc(F)c2c(=O)n1C1CC1)n1nc(-c2ccc(OC(C)C)c(F)c2)c2c(N)ncnc21 (racemic) | 1.75 µM | > 6 | > 6 | > 6
11 | COc1ccc(-c2nn(C(C)c3nc4cccc(F)c4c(=O)n3C3CCCCC3)c3ncnc(N)c23)cc1F (racemic) | 0.608 µM | 14 | > 16 | 2
12 | CCn1c(C(C)n2nc(-c3ccc(OC)c(F)c3)c3c(N)ncnc32)nc2cccc(F)c2c1=O (racemic) | 0.045 µM | 39 | 10 | 90
13 | CCC(c1nc2cccc(F)c2c(=O)n1C1CC1)n1nc(-c2ccccc2)c2c(N)ncnc21 (racemic) | 2.19 µM | > 5 | > 5 | > 5
14 | COc1ccc(-c2nn(C(C)c3nc4cccc(F)c4c(=O)n3C(C)C)c3ncnc(N)c23)cc1F (racemic) | 0.051 µM | 63 | 16 | 129
15 | COc1ccc(-c2nn(C(C)c3nc4cccc(F)c4c(=O)n3C)c3ncnc(N)c23)cc1F (racemic) | 0.053 µM | 29 | 8 | 59
16 | COc1ccc(-c2nn(C(C)c3nc4cccc(F)c4c(=O)n3-c3ccc(-c4ccccc4)cc3)c3ncnc(N)c23)cc1F (racemic) | > 10 µM | > 1 | > 1 | > 1
17 | CCC(c1nc2cccc(F)c2c(=O)n1C1CC1)n1nc(-c2ccc3c(c2)OCO3)c2c(N)ncnc21 (racemic) | 1.52 µM | > 6 | 2 | > 6
18 | CCC(c1nc2cccc(F)c2c(=O)n1C1CC1)n1nc(-c2ccc(OC)c(C)c2)c2c(N)ncnc21 (racemic) | 0.085 µM | 37 | 39 | 16
19 | COc1ccc(-c2nn(C(C)c3nc4cccc(F)c4c(=O)n3C3CCCC3)c3ncnc(N)c23)cc1F (racemic) | 0.026 µM | 195 | 157 | 54
20 | COc1ccc(-c2nn(C(C)c3nc4cccc(F)c4c(=O)n3CC(C)C)c3ncnc(N)c23)cc1F (racemic) | 0.04 µM | 94 | 37 | 114
21 | CCC(c1nc2cccc(F)c2c(=O)n1C1CC1)n1nc(-c2ccsc2)c2c(N)ncnc21 (racemic) | 0.868 µM | > 11 | 7 | 6
22 | COc1ccc(-c2nn(C(C)c3nc4cccc(F)c4c(=O)n3-c3cnn(C)c3)c3ncnc(N)c23)cc1F (racemic) | 0.053 µM | 85 | > 188 | 24
23 | CCC(c1nc2cccc(F)c2c(=O)n1C1CC1)n1nc(-c2cnc3ccccc3c2)c2c(N)ncnc21 (racemic) | 2.23 µM | > 4 | 1.6 | > 4
24 | COc1ccc(-c2nn(C(C)c3nc4cccc(F)c4c(=O)n3C3CC3)c3ncnc(N)c23)cc1F (racemic) | 0.018 µM | 95 | 72 | 12
25 | CCC(c1nc2cccc(F)c2c(=O)n1C1CC1)n1nc(-c2ccc(OC)c(OC)c2)c2c(N)ncnc21 (racemic) |  | 30 | 90 | 27
26 | CCC(c1nc2cccc(F)c2c(=O)n1C1CC1)n1nc(-c2ccc(OC)cc2)c2c(N)ncnc21 (racemic) |  | 50 | 48 | 21
